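1) Cells in 96-well plates. 2) Compound, 48 h, 5 concentrations. 3) Linear interpolation between surrounding doses. 4) Unreached endpoint = highest concentration. At the TGI there is no net growth.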
system: NCI-H23 lung; assay: NCI-60 cell line screen, 48 h

Question: How did the TGI turn out when `COc1ccc(Cc2c(N)[nH]c(=O)[nH]c2=O)cc1` was run?
Answer: The TGI was greater than 100 µM.

Question: With `O=C1c2c(O)ccc(O)c2C(=O)c2c(NCCNC(=O)C(O)C(O)C(O)C(O)CO)ccc(NCCNC(=O)C(O)C(O)C(O)C(O)CO)c21` (stereo not given) as the compound, how does the TGI read?
Answer: The TGI was 0.417 µM.

Question: Which TGI does the source give for `CN1C(=O)C(/C=N/NC(=O)c2cccnc2)C(N)N(C)C1=O` (stereo not given) here?
Answer: Its TGI is greater than 100 µM.

Question: `OCc1cc2c([nH]c3ccccc32)c(C(O)CO)n1` (stereo not given) was tested. Which TGI did it give?
Answer: Its TGI is greater than 100 µM.

Question: For `CC1=C(C)C(=O)C(C2=C(C3=CC(=O)C(C)=C(C)C3=O)C(=O)C(C)=C(C)C2=O)=CC1=O`, which TGI is on record?
Answer: The TGI was 43.1 µM.

system: NCI-H460 lung; assay: NCI-60 cell line screen, 48 h

Question: How did the TGI turn out when `COc1ccc(Cc2c(N)[nH]c(=O)[nH]c2=O)cc1` was run?
Answer: Its TGI is greater than 100 µM.

Question: For `O=C1c2c(O)ccc(O)c2C(=O)c2c(NCCNC(=O)C(O)C(O)C(O)C(O)CO)ccc(NCCNC(=O)C(O)C(O)C(O)C(O)CO)c21` (stereo not given), which TGI is on record?
Answer: Its TGI is 0.0159 µM.

Question: How did the TGI turn out when `CN1C(=O)C(/C=N/NC(=O)c2cccnc2)C(N)N(C)C1=O` (stereo not given) was run?
Answer: Its TGI is greater than 100 µM.

Question: For `OCc1cc2c([nH]c3ccccc32)c(C(O)CO)n1` (stereo not given), which TGI is on record?
Answer: Its TGI is greater than 100 µM.

Question: For `CC1=C(C)C(=O)C(C2=C(C3=CC(=O)C(C)=C(C)C3=O)C(=O)C(C)=C(C)C2=O)=CC1=O`, which TGI is on record?
Answer: The TGI was 29.6 µM.

system: NCI-H522 lung; assay: NCI-60 cell line screen, 48 h

Question: `COc1ccc(Cc2c(N)[nH]c(=O)[nH]c2=O)cc1` was tested. Which TGI did it give?
Answer: Its TGI is greater than 100 µM.

Question: For `O=C1c2c(O)ccc(O)c2C(=O)c2c(NCCNC(=O)C(O)C(O)C(O)C(O)CO)ccc(NCCNC(=O)C(O)C(O)C(O)C(O)CO)c21` (stereo not given), which TGI is on record?
Answer: The TGI was 0.218 µM.

Question: `CN1C(=O)C(/C=N/NC(=O)c2cccnc2)C(N)N(C)C1=O` (stereo not given) was tested. Which TGI did it give?
Answer: The TGI was greater than 100 µM.

Question: For `OCc1cc2c([nH]c3ccccc32)c(C(O)CO)n1` (stereo not given), which TGI is on record?
Answer: Its TGI is greater than 100 µM.

Question: With `CC1=C(C)C(=O)C(C2=C(C3=CC(=O)C(C)=C(C)C3=O)C(=O)C(C)=C(C)C2=O)=CC1=O` as the compound, how does the TGI read?
Answer: The TGI was 5.21 µM.

system: NCI/ADR-RES ovarian; assay: NCI-60 cell line screen, 48 h

Question: How did the TGI turn out when `COc1ccc(Cc2c(N)[nH]c(=O)[nH]c2=O)cc1` was run?
Answer: Its TGI is greater than 100 µM.

Question: How did the TGI turn out when `O=C1c2c(O)ccc(O)c2C(=O)c2c(NCCNC(=O)C(O)C(O)C(O)C(O)CO)ccc(NCCNC(=O)C(O)C(O)C(O)C(O)CO)c21` (stereo not given) was run?
Answer: Its TGI is 2.24 µM.

Question: Which TGI does the source give for `CN1C(=O)C(/C=N/NC(=O)c2cccnc2)C(N)N(C)C1=O` (stereo not given) here?
Answer: The TGI was greater than 100 µM.

Question: `OCc1cc2c([nH]c3ccccc32)c(C(O)CO)n1` (stereo not given) was tested. Which TGI did it give?
Answer: Its TGI is greater than 100 µM.

system: OVCAR-3 ovarian; assay: NCI-60 cell line screen, 48 h

Question: With `COc1ccc(Cc2c(N)[nH]c(=O)[nH]c2=O)cc1` as the compound, how does the TGI read?
Answer: The TGI was greater than 100 µM.

Question: `O=C1c2c(O)ccc(O)c2C(=O)c2c(NCCNC(=O)C(O)C(O)C(O)C(O)CO)ccc(NCCNC(=O)C(O)C(O)C(O)C(O)CO)c21` (stereo not given) was tested. Which TGI did it give?
Answer: The TGI was 2.29 µM.

Question: For `CN1C(=O)C(/C=N/NC(=O)c2cccnc2)C(N)N(C)C1=O` (stereo not given), which TGI is on record?
Answer: The TGI was greater than 100 µM.

Question: How did the TGI turn out when `OCc1cc2c([nH]c3ccccc32)c(C(O)CO)n1` (stereo not given) was run?
Answer: The TGI was greater than 100 µM.

system: OVCAR-4 ovarian; assay: NCI-60 cell line screen, 48 h

Question: How did the TGI turn out when `COc1ccc(Cc2c(N)[nH]c(=O)[nH]c2=O)cc1` was run?
Answer: The TGI was greater than 100 µM.

Question: Which TGI does the source give for `O=C1c2c(O)ccc(O)c2C(=O)c2c(NCCNC(=O)C(O)C(O)C(O)C(O)CO)ccc(NCCNC(=O)C(O)C(O)C(O)C(O)CO)c21` (stereo not given) here?
Answer: The TGI was 0.771 µM.

Question: With `CN1C(=O)C(/C=N/NC(=O)c2cccnc2)C(N)N(C)C1=O` (stereo not given) as the compound, how does the TGI read?
Answer: The TGI was greater than 100 µM.

Question: `OCc1cc2c([nH]c3ccccc32)c(C(O)CO)n1` (stereo not given) was tested. Which TGI did it give?
Answer: Its TGI is greater than 100 µM.

Question: How did the TGI turn out when `CC1=C(C)C(=O)C(C2=C(C3=CC(=O)C(C)=C(C)C3=O)C(=O)C(C)=C(C)C2=O)=CC1=O` was run?
Answer: The TGI was 4.57 µM.

system: OVCAR-5 ovarian; assay: NCI-60 cell line screen, 48 h

Question: With `COc1ccc(Cc2c(N)[nH]c(=O)[nH]c2=O)cc1` as the compound, how does the TGI read?
Answer: The TGI was greater than 100 µM.

Question: With `O=C1c2c(O)ccc(O)c2C(=O)c2c(NCCNC(=O)C(O)C(O)C(O)C(O)CO)ccc(NCCNC(=O)C(O)C(O)C(O)C(O)CO)c21` (stereo not given) as the compound, how does the TGI read?
Answer: Its TGI is 1.88 µM.

Question: For `CN1C(=O)C(/C=N/NC(=O)c2cccnc2)C(N)N(C)C1=O` (stereo not given), which TGI is on record?
Answer: Its TGI is greater than 100 µM.

Question: With `OCc1cc2c([nH]c3ccccc32)c(C(O)CO)n1` (stereo not given) as the compound, how does the TGI read?
Answer: Its TGI is greater than 100 µM.

Question: For `CC1=C(C)C(=O)C(C2=C(C3=CC(=O)C(C)=C(C)C3=O)C(=O)C(C)=C(C)C2=O)=CC1=O`, which TGI is on record?
Answer: The TGI was greater than 34.6 µM.

system: OVCAR-8 ovarian; assay: NCI-60 cell line screen, 48 h

Question: With `COc1ccc(Cc2c(N)[nH]c(=O)[nH]c2=O)cc1` as the compound, how does the TGI read?
Answer: Its TGI is greater than 100 µM.

Question: `O=C1c2c(O)ccc(O)c2C(=O)c2c(NCCNC(=O)C(O)C(O)C(O)C(O)CO)ccc(NCCNC(=O)C(O)C(O)C(O)C(O)CO)c21` (stereo not given) was tested. Which TGI did it give?
Answer: The TGI was 0.528 µM.

Question: With `CN1C(=O)C(/C=N/NC(=O)c2cccnc2)C(N)N(C)C1=O` (stereo not given) as the compound, how does the TGI read?
Answer: The TGI was greater than 100 µM.

Question: How did the TGI turn out when `OCc1cc2c([nH]c3ccccc32)c(C(O)CO)n1` (stereo not given) was run?
Answer: Its TGI is greater than 100 µM.

Question: `CC1=C(C)C(=O)C(C2=C(C3=CC(=O)C(C)=C(C)C3=O)C(=O)C(C)=C(C)C2=O)=CC1=O` was tested. Which TGI did it give?
Answer: Its TGI is greater than 47.1 µM.

system: PC-3 prostate; assay: NCI-60 cell line screen, 48 h

Question: `COc1ccc(Cc2c(N)[nH]c(=O)[nH]c2=O)cc1` was tested. Which TGI did it give?
Answer: Its TGI is greater than 100 µM.

Question: `O=C1c2c(O)ccc(O)c2C(=O)c2c(NCCNC(=O)C(O)C(O)C(O)C(O)CO)ccc(NCCNC(=O)C(O)C(O)C(O)C(O)CO)c21` (stereo not given) was tested. Which TGI did it give?
Answer: Its TGI is 1.51 µM.

Question: For `CN1C(=O)C(/C=N/NC(=O)c2cccnc2)C(N)N(C)C1=O` (stereo not given), which TGI is on record?
Answer: The TGI was greater than 100 µM.

Question: How did the TGI turn out when `OCc1cc2c([nH]c3ccccc32)c(C(O)CO)n1` (stereo not given) was run?
Answer: Its TGI is greater than 100 µM.

Question: For `CC1=C(C)C(=O)C(C2=C(C3=CC(=O)C(C)=C(C)C3=O)C(=O)C(C)=C(C)C2=O)=CC1=O`, which TGI is on record?
Answer: Its TGI is 16 µM.

system: RPMI-8226 leukemia; assay: NCI-60 cell line screen, 48 h

Question: For `COc1ccc(Cc2c(N)[nH]c(=O)[nH]c2=O)cc1`, which TGI is on record?
Answer: The TGI was greater than 100 µM.

Question: How did the TGI turn out when `O=C1c2c(O)ccc(O)c2C(=O)c2c(NCCNC(=O)C(O)C(O)C(O)C(O)CO)ccc(NCCNC(=O)C(O)C(O)C(O)C(O)CO)c21` (stereo not given) was run?
Answer: The TGI was 0.202 µM.

Question: Which TGI does the source give for `CN1C(=O)C(/C=N/NC(=O)c2cccnc2)C(N)N(C)C1=O` (stereo not given) here?
Answer: Its TGI is greater than 100 µM.

Question: For `OCc1cc2c([nH]c3ccccc32)c(C(O)CO)n1` (stereo not given), which TGI is on record?
Answer: Its TGI is greater than 100 µM.

system: RXF 393 renal; assay: NCI-60 cell line screen, 48 h

Question: How did the TGI turn out when `COc1ccc(Cc2c(N)[nH]c(=O)[nH]c2=O)cc1` was run?
Answer: The TGI was greater than 100 µM.

Question: For `O=C1c2c(O)ccc(O)c2C(=O)c2c(NCCNC(=O)C(O)C(O)C(O)C(O)CO)ccc(NCCNC(=O)C(O)C(O)C(O)C(O)CO)c21` (stereo not given), which TGI is on record?
Answer: Its TGI is 0.812 µM.

Question: For `CN1C(=O)C(/C=N/NC(=O)c2cccnc2)C(N)N(C)C1=O` (stereo not given), which TGI is on record?
Answer: Its TGI is greater than 100 µM.

Question: For `CC1=C(C)C(=O)C(C2=C(C3=CC(=O)C(C)=C(C)C3=O)C(=O)C(C)=C(C)C2=O)=CC1=O`, which TGI is on record?
Answer: The TGI was 5.16 µM.

system: SF-268 CNS; assay: NCI-60 cell line screen, 48 h

Question: With `COc1ccc(Cc2c(N)[nH]c(=O)[nH]c2=O)cc1` as the compound, how does the TGI read?
Answer: Its TGI is greater than 100 µM.

Question: With `O=C1c2c(O)ccc(O)c2C(=O)c2c(NCCNC(=O)C(O)C(O)C(O)C(O)CO)ccc(NCCNC(=O)C(O)C(O)C(O)C(O)CO)c21` (stereo not given) as the compound, how does the TGI read?
Answer: Its TGI is 1.98 µM.

Question: For `CN1C(=O)C(/C=N/NC(=O)c2cccnc2)C(N)N(C)C1=O` (stereo not given), which TGI is on record?
Answer: Its TGI is greater than 100 µM.

Question: How did the TGI turn out when `OCc1cc2c([nH]c3ccccc32)c(C(O)CO)n1` (stereo not given) was run?
Answer: Its TGI is greater than 100 µM.

Question: Which TGI does the source give for `CC1=C(C)C(=O)C(C2=C(C3=CC(=O)C(C)=C(C)C3=O)C(=O)C(C)=C(C)C2=O)=CC1=O` here?
Answer: Its TGI is 34.5 µM.

system: SF-295 CNS; assay: NCI-60 cell line screen, 48 h

Question: For `COc1ccc(Cc2c(N)[nH]c(=O)[nH]c2=O)cc1`, which TGI is on record?
Answer: The TGI was greater than 100 µM.

Question: For `O=C1c2c(O)ccc(O)c2C(=O)c2c(NCCNC(=O)C(O)C(O)C(O)C(O)CO)ccc(NCCNC(=O)C(O)C(O)C(O)C(O)CO)c21` (stereo not given), which TGI is on record?
Answer: Its TGI is 0.0291 µM.

Question: Which TGI does the source give for `CN1C(=O)C(/C=N/NC(=O)c2cccnc2)C(N)N(C)C1=O` (stereo not given) here?
Answer: The TGI was greater than 100 µM.

Question: For `OCc1cc2c([nH]c3ccccc32)c(C(O)CO)n1` (stereo not given), which TGI is on record?
Answer: The TGI was greater than 100 µM.

Question: For `CC1=C(C)C(=O)C(C2=C(C3=CC(=O)C(C)=C(C)C3=O)C(=O)C(C)=C(C)C2=O)=CC1=O`, which TGI is on record?
Answer: Its TGI is 33.8 µM.

system: SF-539 CNS; assay: NCI-60 cell line screen, 48 h

Question: Which TGI does the source give for `COc1ccc(Cc2c(N)[nH]c(=O)[nH]c2=O)cc1` here?
Answer: The TGI was greater than 100 µM.

Question: How did the TGI turn out when `O=C1c2c(O)ccc(O)c2C(=O)c2c(NCCNC(=O)C(O)C(O)C(O)C(O)CO)ccc(NCCNC(=O)C(O)C(O)C(O)C(O)CO)c21` (stereo not given) was run?
Answer: The TGI was 0.44 µM.

Question: For `OCc1cc2c([nH]c3ccccc32)c(C(O)CO)n1` (stereo not given), which TGI is on record?
Answer: The TGI was greater than 100 µM.

Question: Which TGI does the source give for `CC1=C(C)C(=O)C(C2=C(C3=CC(=O)C(C)=C(C)C3=O)C(=O)C(C)=C(C)C2=O)=CC1=O` here?
Answer: The TGI was 4.99 µM.
